The text below walks through data of US20180333491A1 (Sinotau Pharmaceuticals Group, priority 2015, published 2018).

This data set concerns human pancreatic cancer tumor cells MIA-PaCa-2. As to the kind of experiment: MIA-PaCa-2 subcutaneous model.

Method: Tumor cells (i.e., MIA-PaCa-2, WiDr, H2122, colo205) were inoculated in nude mice's flank at 5×10^6 cells per mouse. The mice were grouped when the average volume of tumors reached about 100˜200 mm^3. “QW”=weekly dose. “Q3d”=dosed every third day. “BiW”=biweekly.
The bodyweight and major/minor axis of the mice were measured twice a week, and the tumor volumes were calculated using the formula: Tumor volume=1/2×major axis×minor axis. […] “T” represents average tumor volume of the experimental group (cm^3), and “C” represents average tumor volume of the control group (cm^3). The animals were monitored at all times. The bodyweight and major/minor axis or mice were measured twice a week. When the experiments were concluded, mice were sacrificed and tumors were extracted and weighted.
Tumor volumes were represented with average ±standard error. Data analysis was done using Spss16.0, One-Way ANOVA, LSD (homogeneity of variance) or Dunnett T3 (non-homogeneity of variance). […] P<0.05 represents significant difference.

On to `Nc1ccn([C@@H]2O[C@H](CO)[C@@H](O)C2(F)F)c(=O)n1` [Gemcitabine, reference compound], for which, under “Gemcitabine 60 mg/kg i.p., 34 days of treatment”, the “Tumor Volume (cm^3) Mean ± SEM” value came out at 1.60 ± 0.11 cm^3. In addition, where the note is “MIA-PaCa-2 model, over the treatment time”, the bodyweights result was “decreased significantly by the third dosing”. The tumor regression result runs as follows: (first experiment) “not found”; (repeated experiment) “not found”.
